Data reported in ChEMBL document CHEMBL1138074, “SAR studies of 2-methoxyestradiol and development of its analogs as probes of anti-tumor mechanisms” (Bioorg Med Chem Lett, 2006).

Tested on: LNCaP
Assay: Antiproliferative activity against human LNCaP cell line
Assay type: functional, cell-based
Settings: Homo sapiens, LNCaP; read-out: IC50; call rule not given here

| IC50 | SMILES |
| --- | --- |
| 600 nM | COc1cc2c(cc1O)CC[C@@H]1[C@@H]2CC[C@]2(C)[C@@H](OC(=O)CNC(=O)CCCCCNC(=O)CCCC[C@@H]3SC[C@@H]4NC(=O)N[C@@H]43)CC[C@@H]12 |
| 600 nM | COc1cc2c(cc1O)CC[C@@H]1[C@@H]2CC[C@]2(C)[C@@H](OC(=O)CNC(=O)CCCCCNC(=O)OC(C)(C)C)CC[C@@H]12 |
| 600 nM | COc1cc2c(cc1O)CC[C@@H]1[C@@H]2CC[C@]2(C)[C@@H](OC(=O)CNC(=O)CCCCCN)CC[C@@H]12 |
| 900 nM | COc1cc2c(cc1O)CC[C@@H]1[C@@H]2CC[C@]2(C)[C@@H](OC(=O)CN)CC[C@@H]12 |

| SMILES | IC50 |
| --- | --- |
| COc1cc2c(cc1O)CC[C@@H]1[C@@H]2CC[C@]2(C)[C@@H](O)CC[C@@H]12 [2-METHOXYESTRADIOL] | 500 nM |

Same assay, conditions: lncap

| IC50 | SMILES |
| --- | --- |
| Not Active | COc1cc2c(cc1O)CC[C@@H]1[C@@H]2CC[C@]2(C)[C@@H](OC(=O)CNC(=O)OCC3c4ccccc4-c4ccccc43)CC[C@@H]12 |
